The results in this text go back to PMC4769088, “Antifungal Activity and Action Mechanism of Histatin 5-Halocidin Hybrid Peptides against Candida ssp” (PLoS ONE, 2016).

This experiment concerns all tested Candida strains. Format: cell-based. The settings on record: 4 h.

Where a SMILES comes first, the peptide text is derived from it. Bridges are numbered along the chain shown (N, C = ends). Roman numbers before positions name the chains, in order.

Compound `CC(C)C[C@H](NC(=O)[C@@H](N)Cc1c[nH]c2ccccc12)C(=O)N[C@@H](CC(N)=O)C(=O)N[C@@H](C)C(=O)N[C@@H](CCCCN)C(=O)N[C@@H](CCCNC(=N)N)C(=O)N[C@@H](Cc1c[nH]cn1)C(=O)N[C@@H](Cc1c[nH]cn1)C(=O)NCC(=O)N[C@@H](Cc1ccc(O)cc1)C(=O)N[C@@H](CCCCN)C(=O)N[C@@H](CSSC[C@H](NC(=O)[C@H](CCCCN)NC(=O)[C@H](Cc1ccc(O)cc1)NC(=O)CNC(=O)[C@H](Cc1c[nH]cn1)NC(=O)[C@H](Cc1c[nH]cn1)NC(=O)[C@H](CCCNC(=N)N)NC(=O)[C@H](CCCCN)NC(=O)[C@H](C)NC(=O)[C@H](CC(N)=O)NC(=O)[C@H](CC(C)C)NC(=O)[C@@H](N)Cc1c[nH]c2ccccc12)C(=O)N[C@@H](CCCCN)C(=O)N[C@@H](Cc1ccccc1)C(=O)N[C@@H](Cc1c[nH]cn1)C(N)=O)C(=O)N[C@@H](CCCCN)C(=O)N[C@@H](Cc1ccccc1)C(=O)N[C@@H](Cc1c[nH]cn1)C(N)=O` [di-WP2] (I: H-WLNAKRHHGYKCKFH-NH2 / II: H-WLNAKRHHGYKCKFH-NH2; disulfide I:12-II:12 (inferred); N-terminus assumed) displayed an MIC values of 2 to 4 µg/mL.

For `CC(C)C[C@H](NC(=O)CNC(=O)[C@H](Cc1c[nH]cn1)NC(=O)[C@H](Cc1c[nH]cn1)NC(=O)[C@H](CCCNC(=N)N)NC(=O)[C@H](CCCCN)NC(=O)[C@H](C)N)C(=O)N[C@@H](CC(N)=O)C(=O)N[C@@H](CSSC[C@H](NC(=O)[C@H](CC(N)=O)NC(=O)[C@H](CC(C)C)NC(=O)CNC(=O)[C@H](Cc1c[nH]cn1)NC(=O)[C@H](Cc1c[nH]cn1)NC(=O)[C@H](CCCNC(=N)N)NC(=O)[C@H](CCCCN)NC(=O)[C@H](C)N)C(=O)N[C@@H](C)C(=O)N[C@@H](CCCCN)C(=O)N[C@@H](Cc1ccccc1)C(=O)N[C@@H](Cc1c[nH]cn1)C(N)=O)C(=O)N[C@@H](C)C(=O)N[C@@H](CCCCN)C(=O)N[C@@H](Cc1ccccc1)C(=O)N[C@@H](Cc1c[nH]cn1)C(N)=O` [di-PH2] (I: H-AKRHHGLNCAKFH-NH2 / II: H-AKRHHGLNCAKFH-NH2; disulfide I:9-II:9 (inferred); N-terminus assumed), the MIC values lay in the range of 1 to 2 µg/mL.
